Measurements: paper PMC3608651, “A Broad Profile of Co-Dominant Epitopes Shapes the Peripheral Mycobacterium tuberculosis Specific CD8+ T-Cell Immune Response in South African Patients with Active Tuberculosis” (PLoS ONE, 2013)

Key:
Type in all cases: binding
HLA-A*02:01 = HLA-A*02:01 (Homo sapiens, UniProt P04439, D140Y/D185E/D98H/E176V/E277Q/G131W/G231S/I119V/I121R/I166T/I218V/L300P/L318F/N151K/N90K/P208A/P217A/Q86G/Q94H/R138H/R169H/T345S); conditions: percent relative the binding of positive control peptide […]; plate-bound monomer 0.5 µg/ml; duplicated experiments; positive binder >40%
HLA-A*24:02 = HLA-A*24:02 (Homo sapiens, UniProt P04439, D101N/D140Y/D185E/E176V/E190D/F33S/G103R/G107R/I119L/I121M/I306V/K335N/L105A/L180Q/L300P/N151K/N90K/Q86E/Q94H/R106L/R138H/R89G/T104I/T345S/V100E/W191G/Y123F); conditions: percent relative the binding of positive control peptide […]; duplicated experiments; positive binder >40%
HLA-A*30:01 = HLA-A*30:01 (Homo sapiens, UniProt P04439, D140H/D185E/E176W/F33S/G80R/H175R/K168Q/R138E/R41S); conditions: percent relative the binding of positive control peptide […]; duplicated experiments; positive binder >40%
HLA-A*30:02 = HLA-A*30:02 (Homo sapiens, UniProt P04439, D101N/D140H/D185E/E176R/F33S/G80R/H175R/K168Q/Q94H/R138E/R41S/V100E); conditions: percent relative the binding of positive control peptide […]; duplicated experiments; positive binder >40%
HLA-A*68:01 = HLA-A*68:01 (Homo sapiens, UniProt P04439, A269V/D185E/E176V/E277Q/E87N/F33Y/G231S/I121M/I166T/I218V/L180W/L300P/L318F/N151K/P208A/P217A/Q86R/R169H/T345S); conditions: percent relative the binding of positive control peptide […]; duplicated experiments; positive binder >40%
HLA-B*07:02 = HLA-B*07:02 (Homo sapiens, UniProt P01889); conditions: percent relative the binding of positive control peptide […]; duplicated experiments; positive binder >40%
HLA-B*58:01 = HLA-B*58:01 (Homo sapiens, UniProt P01889, A329T/C349S/D201E/D98Y/E176V/E187L/E204Q/E69T/G107R/I218V/I90N/K202T/L105A/L119I/N104I/N87E/Q89R/Q94S/R106L/R155S/R180L/R86G/S101N/S121R/S35A/S48A/T118I/V127L/V306I/V36M/Y140S/Y91M); conditions: percent relative the binding of positive control peptide […]; duplicated experiments; positive binder >40%
HLA-C*07:01 = HLA-C*07:01 (Homo sapiens, UniProt P10321, K90N/S123Y); conditions: percent relative the binding of positive control peptide […]; duplicated experiments; positive binder >40%

Substance	Bind A*02:01 (HLA-A*02:01)	Bind A*24:02 (HLA-A*24:02)	Bind A*30:01 (HLA-A*30:01)	Bind A*30:02 (HLA-A*30:02)	Bind A*68:01 (HLA-A*68:01)	Bind B*07:02 (HLA-B*07:02)	Bind B*58:01 (HLA-B*58:01)	Bind C*07:01 (HLA-C*07:01)
TSELPQW LS	12%	52%	0%	0%	0%	14%	0%	0%
ACGKAGCQT	44%	25%	19%	0%	13%	9%	0%	0%
KGDLQSSLG	10%	4%	20%	13%	40%	6%	0%	25%
CGNGTPNEL	20%	2%	0%	41%	0%	0%	0%	28%
GPSLIGLAM	11%	0%	0%	0%	6%	85%	18%	0%
ILAAYHPQQ	57%	0%	1%	45%	0%	1%	30%	1%
VRSSNLKFQ	5%	23%	0%	0%	14%	10%	7%	61%
PQWLSANRA	52%	75%	36%	13%	13%	14%	0%	2%
GGNNSPAVY	0%	0%	0%	90%	3%	0%	0%	45%
GGYKAADMW	0%	34%	0%	0%	11%	0%	61%	0%
NAMKGDLQS	14%	45%	6%	0%	15%	6%	0%	20%
DPSQGMGPS	30%	58%	21%	29%	0%	0%	12%	19%
NAAGGHNAV	39%	0%	27%	2%	28%	16%	43%	5%
SPAVYLLDG	0%	49%	0%	0%	0%	0%	0%	1%
NT RLW V Y CG	0%	0%	27%	49%	0%	0%	0%	0%
LSIVMPVGG	33%	0%	0%	46%	0%	0%	29%	0%
LSANRAVKP	17%	27%	49%	15%	0%	11%	0%	24%

Substance	Bind A*02:01 (HLA-A*02:01)	Bind A*24:02 (HLA-A*24:02)	Bind A*30:01 (HLA-A*30:01)	Bind A*30:02 (HLA-A*30:02)	Bind A*68:01 (HLA-A*68:01)	Bind B*07:02 (HLA-B*07:02)	Bind B*58:01 (HLA-B*58:01)	Bind C*07:01 (HLA-C*07:01)
NNTRLW VYC	0%	3%	19%	89%	4%	4%	11%	20%
VMPVGGQSS	60%	0%	0%	12%	0%	0%	0%	0%
AQLNAMKGD	10%	29%	0%	56%	0%	0%	0%	3%
GGHNAVFNF	40%	34%	0%	0%	0%	19%	52%	22%
SLSALLDPS	57%	4%	2%	3%	0%	1%	18%	11%
SPACGKAGC	16%	0%	0%	0%	0%	77%	0%	0%
PAFEW YYQS	76%	24%	0%	0%	6%	15%	0%	2%
LAMGDAGGY	10%	0%	0%	74%	56%	2%	39%	0%
T RLW V Y CG N	0%	0%	45%	33%	5%	0%	0%	15%
QQIPKLVAN	36%	0%	10%	60%	2%	2%	16%	15%
LDPSQGMGP	41%	12%	32%	0%	0%	43%	12%	18%
FLTSELPQW	75%	117%	0%	3%	5%	8%	71%	0%
PSSDPAW ER	1%	0%	0%	0%	53%	10%	2%	18%
IPKLVANNT	0%	0%	5%	0%	0%	41%	16%	0%
MGDAGGYKA	45%	0%	0%	0%	9%	0%	0%	0%
PNGTHSWEY	0%	0%	0%	77%	9%	8%	0%	48%
